Test results from PMC3157017 (Theranostics, 2011).

Target: integrin αvβ3 (Homo sapiens, UniProt P05106+P06756)
Test: Whole-cell integrin αvβ3 competitive displacement assay against ^125I-c
Format: binding

N=C(N)NCCC[C@@H]1NC(=O)[C@H](CCCCNC(=O)CCOCCOCCOCCOCCNC(=O)CN2CCN(CC(=O)O)CCN(CC(=O)O)CCN(CC(=O)O)CC2)NC(=O)[C@@H](Cc2ccccc2)NC(=O)[C@H](CC(=O)O)NC(=O)CNC1=O [DOTA-P-RGD, DOTA-PEG4-c(RGDfK)]
IC50: 44.3 ± 3.5 nM
